Drawing on ChEMBL document CHEMBL1128656, “5,6,7,8-Tetrahydroquinolones as antagonists at the glycine site of the NMDA receptor” (Bioorg Med Chem Lett, 1995), this text covers IC50, Kb and ED50 for ten molecules.

The source made the active and inactive calls. The rule behind the calls is not given here. Some results are limits rather than exact numbers.

Test [1] addresses Glutamate receptor ionotropic, NMDA 1 (Rattus norvegicus, UniProt P35439). As to the kind of experiment: Compound was evaluated for its ability to displace [3H]-L-689,560 from rat cortical membrane.
The target in test [2] is Glutamate receptor ionotropic, NMDA 1 (Rattus norvegicus) (UniProt P35439). As to the kind of experiment: Ability of compound to antagonize NMDA induced responses in rat cortical slice. It counts as functional.
The test system of test [3] is Mus musculus. Put plainly: Effective dose required to protect against audiogenic seizure in DBA/2 mice at 10 mg/kg; number protected / number tested is 1/8. The test is classed as functional, organism-based. More on the design: dose 10 mg/kg.
For test [4], the system named is Mus musculus. Put plainly: Effective dose required to protect against audiogenic seizure in DBA/2 mice at 20 mg/kg; number protected / number tested is 8/8. More on the design: dose 20 mg/kg. It counts as functional, organism-based.
The subject of test [5] is Mus musculus. As to the kind of experiment: Effective dose required to protect against audiogenic seizure in DBA/2 mice at 10 mg/kg; number protected / number tested is 4/8. It counts as functional, organism-based. More on the design: dose 10 mg/kg.
The species named for test [6] is Mus musculus. Put plainly: Effective dose required to protect against audiogenic seizure in DBA/2 mice. The test is classed as functional.

`CCCc1nc(O)c(-c2ccccc2)c(O)c1C` had an IC50 in test [1] of approximately 100 µM.
Turning to `CC1CCc2c(nc(O)c(-c3ccccc3)c2O)C1` (stereo not drawn), the Kb in test [2] was found to be 3.7 µM. The ED50 result in the test with Mus musculus [3] was “inactive”. The ED50 result with Mus musculus [4] is “Active”.
`CC1CCc2c([nH]c(=O)c(-c3cccc(Oc4ccccc4)c3)c2O)C1` (stereo not drawn) showed an IC50 in test [1] of 0.057 µM.
As to `Cc1ccc2c(O)c(-c3cccc(Oc4ccccc4)c3)c(O)nc2c1`, the ED50 entry with Mus musculus [5] is “Weak activity”.
`Cc1[nH]c(=O)c(-c2ccccc2)c(O)c1C` had an IC50 in test [1] of more than 100 µM.
Still for that read-out and setting: to `CC1CCc2c([nH]c(=O)c(-c3ccccc3)c2O)C1` (stereo not drawn) belongs 3.5 µM.
In the case of `O=c1[nH]c2cc(Cl)ccc2c(O)c1-c1cccc(Oc2ccccc2)c1`, the ED50 in the test filed under Mus musculus [6] was 0.88 mg/kg.
`Cc1ccc2c(O)c(-c3cccc(Oc4ccccc4)c3)c(=O)[nH]c2c1` showed an IC50 in test [1] of 0.02 µM.
Molecule `O=c1[nH]c2cc(Cl)ccc2c(O)c1-c1ccccc1` gave an ED50 in the test listed under Mus musculus [6] of 4.5 mg/kg.
Take `CC1CCc2c(nc(O)c(-c3cccc(Oc4ccccc4)c3)c2O)C1` (stereo not drawn): the Kb in test [2] came out at 0.35 µM. Besides, the ED50 entry in the test on Mus musculus [3] is “inactive”.
